{
  "source": "patent US9062051B2",
  "about": "“Compounds and pharmaceutical compositions thereof for the treatment of proliferative disorders” (GALAPAGOS NV, priority 2014, dated 2015)",
  "key": {"EphA2": {"biological_target": "T1, EphA2 (UniProt Ref: P29317) (Homo sapiens, UniProt P29317)", "T1 construct": "purchased Reaction Biology", "T1 sequence (P29317 24-976)": "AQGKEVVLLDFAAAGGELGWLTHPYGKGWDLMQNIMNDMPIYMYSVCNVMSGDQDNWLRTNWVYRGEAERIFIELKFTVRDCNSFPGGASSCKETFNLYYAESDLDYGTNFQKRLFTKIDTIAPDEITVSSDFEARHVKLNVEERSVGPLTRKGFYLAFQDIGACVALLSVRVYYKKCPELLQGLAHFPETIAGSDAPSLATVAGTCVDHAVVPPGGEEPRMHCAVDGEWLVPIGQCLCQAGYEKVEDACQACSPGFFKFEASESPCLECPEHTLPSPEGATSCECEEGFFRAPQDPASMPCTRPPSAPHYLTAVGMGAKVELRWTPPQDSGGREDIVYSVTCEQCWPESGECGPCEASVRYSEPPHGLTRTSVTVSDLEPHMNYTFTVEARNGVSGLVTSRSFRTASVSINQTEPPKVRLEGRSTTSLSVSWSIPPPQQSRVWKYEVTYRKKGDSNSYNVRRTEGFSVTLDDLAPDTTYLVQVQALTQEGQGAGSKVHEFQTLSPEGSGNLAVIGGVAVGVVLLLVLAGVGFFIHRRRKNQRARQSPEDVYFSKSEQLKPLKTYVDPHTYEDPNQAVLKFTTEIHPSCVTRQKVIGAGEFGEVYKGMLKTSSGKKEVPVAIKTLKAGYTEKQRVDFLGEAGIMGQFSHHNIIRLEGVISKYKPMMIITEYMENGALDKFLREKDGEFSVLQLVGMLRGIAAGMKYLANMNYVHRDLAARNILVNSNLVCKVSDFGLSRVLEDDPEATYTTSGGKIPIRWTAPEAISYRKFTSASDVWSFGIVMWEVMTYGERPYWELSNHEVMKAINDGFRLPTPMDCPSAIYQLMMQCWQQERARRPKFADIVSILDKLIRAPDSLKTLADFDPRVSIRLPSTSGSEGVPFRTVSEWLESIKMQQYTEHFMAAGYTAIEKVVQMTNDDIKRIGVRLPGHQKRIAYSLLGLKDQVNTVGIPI", "experiment": "EphA2 assay (Reaction Biology HotSpot radioactive kinase assay)", "type": "biochemical", "conditions": "ATP 10 μM; read-out: EphA2 potency IC50", "description": "(§1) Inhibition of EphA2 (UniProt Ref: P29317) by a test compound is determined by a commercially available Reaction Biology proprietary nanoliter radioactive HotSpot^SM assay (Reaction Biology, One great valley parkway, Suite 2, Malvern Pa., 19355, USA). The principle of the assay consists of the measurement of incorporated ^33P into poly[Glu:Tyr] (4:1) (0.2 mg/mL) when the substrate is phosphorylated by the enzyme using [^33P]-γ-ATP and ATP (10 μM).\nTo determine the IC50, a serial dilution of compound is tested starting from 10, or 3 μM (highest dilution) with a 1/3 dilution."}, "Recombinant EphB2": {"biological_target": "T2, Recombinant EphB2 (Homo sapiens, UniProt P29323)", "T2 construct": "purchased Carna 08-129", "T2 sequence (P29323 19-986 isoform P29323-2 limits assumed)": "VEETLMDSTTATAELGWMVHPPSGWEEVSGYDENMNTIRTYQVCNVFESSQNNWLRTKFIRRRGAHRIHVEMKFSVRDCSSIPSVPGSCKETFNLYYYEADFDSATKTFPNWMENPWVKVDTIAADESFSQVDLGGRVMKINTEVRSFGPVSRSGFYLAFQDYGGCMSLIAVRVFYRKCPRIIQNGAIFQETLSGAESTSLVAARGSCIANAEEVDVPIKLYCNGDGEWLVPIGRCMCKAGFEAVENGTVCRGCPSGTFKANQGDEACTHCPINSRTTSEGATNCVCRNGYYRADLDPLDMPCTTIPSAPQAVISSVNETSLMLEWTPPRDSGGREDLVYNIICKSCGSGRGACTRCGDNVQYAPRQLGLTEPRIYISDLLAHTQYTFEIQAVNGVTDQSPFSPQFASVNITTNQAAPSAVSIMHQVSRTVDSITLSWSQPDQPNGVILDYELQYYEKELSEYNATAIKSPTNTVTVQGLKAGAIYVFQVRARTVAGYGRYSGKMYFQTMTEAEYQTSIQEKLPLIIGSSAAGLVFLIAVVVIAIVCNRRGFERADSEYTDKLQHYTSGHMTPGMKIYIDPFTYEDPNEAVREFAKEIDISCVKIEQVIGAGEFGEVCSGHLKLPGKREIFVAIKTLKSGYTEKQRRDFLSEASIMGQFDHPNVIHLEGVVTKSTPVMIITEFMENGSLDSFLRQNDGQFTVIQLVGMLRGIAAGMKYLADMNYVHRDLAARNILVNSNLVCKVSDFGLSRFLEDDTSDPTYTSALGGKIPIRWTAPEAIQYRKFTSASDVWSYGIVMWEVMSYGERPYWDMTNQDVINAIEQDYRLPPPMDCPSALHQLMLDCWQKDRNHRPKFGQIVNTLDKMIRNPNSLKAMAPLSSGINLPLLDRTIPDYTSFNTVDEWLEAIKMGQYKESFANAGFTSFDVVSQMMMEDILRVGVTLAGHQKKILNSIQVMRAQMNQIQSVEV", "experiment": "EphB2 assay (33P incorporation into poly GT, filter plate)", "type": "biochemical", "conditions": "read-out: EphB2 potency IC50", "description": "The principle of the assay consists of the measurement of incorporated ^33P into the substrate poly GT when phosphorylated by the enzyme EphB2 using [^33P]-γ-ATP and ATP. Unincorporated ^33P is removed by loading the samples on a filter plate (using a harvester, Perkin Elmer) and 6 subsequent washing steps. ^33P incorporated in polyGT is measured on a Topcount after addition of microscint to the filter plates (Perkin Elmer).\nRecombinant EphB2 (Carna Cat#08-129, 0.6 ng per well) was incubated with 0.05 mg/mL Poly(Glu,Tyr)sodium salt (4:1), MW 20 000-50 000 (Sigma catalog number P0275) in kinase reaction buffer (10 mM MOPS pH 7.2, 5 mM DTT, 0.01% Triton-X100, 5 mM MnCl2, 0.5 mM Na3VO4, 5 mM beta-glycerolphosphate), 0.5 μM non-radioactive ATP, 0.25 μCi/25 μl ^33P-gamma-ATP (Perkin Elmer, catalog number NEG602K) final concentrations with or without 5 μL containing test compound or vehicle (DMSO, 1% final concentration), in a total volume of 25 μL, in a polypropylene 96-well plate (Greiner, V-bottom). After 45 min at 30° C., reactions were stopped by adding of 25 μL/well of 150 mM phosphoric acid. The experiment was then conducted as described for EphA7. The ability of a test compound to inhibit the kinase activity was determined using counts per minutes (cpm) measured by the Topcount as:\nCpm (cpd): cpm determined for sample with test compound present\nCpm (control): cpm determined for sample with positive control inhibitor (10 μM staurosporine)\nCpm (vehicle): cpm determined in the presence of vehicle (1% DMSO)\nDose dilution series were prepared for the compounds enabling the testing of dose-response effects in the EphB2 assay and the calculation of the IC50 for each compound. Each compound was routinely tested at concentration of 20 μM followed by a 1/5 serial dilution, 10 points in a final concentration of 1% DMSO. When potency of compound series increased, more dilutions may be prepared and/or the top concentration may be lowered (e.g. 5 μM, 1 μM)."}, "EphB4": {"biological_target": "T3, EphB4 (UniProt Ref: Q541P7) (Homo sapiens, UniProt P54760)", "T3 construct": "purchased Reaction Biology", "T3 sequence (P54760 16-987)": "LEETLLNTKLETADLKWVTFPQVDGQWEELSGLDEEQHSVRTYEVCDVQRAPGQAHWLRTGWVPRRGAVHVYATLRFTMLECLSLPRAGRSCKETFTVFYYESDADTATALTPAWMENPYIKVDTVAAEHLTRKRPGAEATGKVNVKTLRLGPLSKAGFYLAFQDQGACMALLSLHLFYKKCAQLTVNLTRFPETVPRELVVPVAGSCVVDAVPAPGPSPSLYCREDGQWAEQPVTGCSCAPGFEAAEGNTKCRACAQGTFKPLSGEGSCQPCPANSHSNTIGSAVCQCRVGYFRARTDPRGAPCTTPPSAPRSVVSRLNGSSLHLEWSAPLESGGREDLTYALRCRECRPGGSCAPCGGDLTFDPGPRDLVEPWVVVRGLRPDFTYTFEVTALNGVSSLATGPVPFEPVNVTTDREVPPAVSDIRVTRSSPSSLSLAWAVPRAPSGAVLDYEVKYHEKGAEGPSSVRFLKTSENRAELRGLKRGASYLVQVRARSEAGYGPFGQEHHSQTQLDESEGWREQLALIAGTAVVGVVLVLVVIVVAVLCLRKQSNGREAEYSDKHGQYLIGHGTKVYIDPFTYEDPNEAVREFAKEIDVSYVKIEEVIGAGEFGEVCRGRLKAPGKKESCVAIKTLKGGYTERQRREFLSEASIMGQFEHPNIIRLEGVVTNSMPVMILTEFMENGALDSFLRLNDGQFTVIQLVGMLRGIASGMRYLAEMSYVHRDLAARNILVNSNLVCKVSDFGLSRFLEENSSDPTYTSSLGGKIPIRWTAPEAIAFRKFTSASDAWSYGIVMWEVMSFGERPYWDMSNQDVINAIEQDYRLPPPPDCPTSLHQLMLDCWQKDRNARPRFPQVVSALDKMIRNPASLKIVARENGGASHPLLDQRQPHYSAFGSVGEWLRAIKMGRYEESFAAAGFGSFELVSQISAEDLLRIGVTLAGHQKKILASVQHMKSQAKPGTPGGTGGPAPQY", "experiment": "EphB4 assay (Reaction Biology HotSpot radioactive kinase assay)", "type": "biochemical", "conditions": "ATP 10 μM; read-out: EphB4 potency IC50", "description": "as §1, with “EphB4” for “EphA2”, “Q541P7)” for “P29317)”\nTo determine the IC50, a serial dilution of compound is tested starting from 10 or 3 μM (highest dilution) with a 1/3 dilution."}, "[1]": {"experiment": "Pharmacokinetics in rats (exposure, AUC)", "type": "in vivo, male Sprague Dawley rats", "conditions": "male, Sprague Dawley, rat, plasma, po, 5 mg/kg", "description": "This study is performed with 6 naïve male Sprague Dawley rats (180-200 g, 6-8 weeks old). Rats are obtained from Janvier, Le Genest St Isle, France.\nA controlled environment is maintained in the room with optimal conditions of approximately 15 air changes per hour, a temperature of 22±2 C, a relative humidity of 30-70% and a 12 hour light/dark cycle\nPelleted diet for rodents (UAR A04C-10) is used and is provided ad libitum. Before p.o. dosing, the animals are deprived of food for at least 12 hours before compound administration and 4 hours after administration. All animals had free access to tap water.\nTwo days before the dosing day, the implantation of a catheter in the jugular vein is done under gaseous anaesthesia with isoflurane.\nRats are dosed intravenously with test compound via a bolus in the tail vein with a dose level of 1 mg/kg. […]\nThe i.v. bolus and the oral administration are given a dose volume of 5 mL/kg.\nFrom all animals approximately 200 μL blood samples are collected via the catheter and placed into tubes containing Li-heparin as anticoagulant. Blood samples are collected at the various time points (i.v.: 0.05, 0.25, 0.5, 1, 3, 5, 8 and 24 hours after dosing; p.o.: 0.25, 0.5, 1, 3, 5, 8 and 24 hours after dosing).\nBlood is kept on ice. Within 1 hour after sampling, blood is centrifuged at 5,000 rpm for 10 min at 4° C. Immediately after centrifugation, the resulting plasma samples are collected into polypropylene tubes and are kept frozen at −20° C. pending bioanalysis.\nPlasma samples are assayed by LC-MS/MS. Plasma proteins are precipitated with an excess of methanol containing the internal standard and the corresponding supernatant is injected on a C18 column. Analytes are eluted out the HPLC system by increasing the percentage of the organic mobile phase. An API4000 mass spectrometer (AB Sciex™) is used for the detection and quantification.\nPharmacokinetic parameters are calculated by non-compartmental analysis using WinNonlin® software (Pharsight, version 5.2)."}, "MDA-MB-231 cells": {"tested_on": "MDA-MB-231 cells", "experiment": "Mouse xenograft model of human triple negative breast cancer (MDA-MB-231), tumorous growth inhibition", "type": "in vivo, Female BALB/c Mice", "conditions": "day 26, 20 mg/kg, ip, 3x/ week", "description": "Animals (Female BALB/c Mice, Harlan, 51930, 18-20 g) are provided with filtered tap water and standard chow ad libitum and maintained at 22±2° C. in 55±10% humidity on a 12 h light/dark cycle.\nPaclitaxel used as a positive control is formulated by 1/3 dilution of commercial solution (Fresenius kabi, 871WF014/4) in saline.\nThe test compounds for po administration are formulated in 0.5% methylcellulose (VWR, ref AX021233).\nMDA-MB-231 cell line is obtained from the ATCC collection (ref HTB-26). The cells are then cultured in RPMI 1640 medium supplemented with […] (Gibco 15140-148) and 1% (v/v) L-Glutamine 200 mM (Gibco 25030-024) at 37° C. in a 5% CO2 incubator.\n5 million MDA-MB-231 cells/mice in 0.1 mL of 50% Matrigel (BD biosciences, LDEV free 256235)+50% D-PBS 1× (Gibco 14190-086) are injected by subcutaneous route on the upper back of 120 mice. Prior to implantation, mice are anesthetized by intra-peritoneal injection with a 0.1 mL/10 g dose of anaesthetic solution (18 mL NaCl, 0.9%+0.5 mL xylazine, +1.5 mL ketamine. […]\nBody weight, and tumor growth is recorded twice a week during the course of treatment.\nAfter 26 days the treatment is stopped, in each group half of the mice are euthanized for tissue collection, and the other half is kept for a further 7 days, during which period body weight and tumour sized are measured.\nIn sacrificed mice, blood and tumours are collected, analysed, and the effect of the test compounds is compared with controls (vehicle and paclitaxel).\nThe values were obtained using the following calculations\nRelative Tumor Volume (RTV):\nTumor Growth Inhibition (TGI) TGI=1−T/C"}},
  "data": [
    {"smiles": "Cc1cc(C)cc(C(=O)Nc2ccc(C)c(-c3ccc4c(C(O)CN5CCOCC5)n[nH]c4n3)c2)c1", "note": "(stereo not drawn) [Compound 7, N-{3-[3-(1-Hydroxy-2-morpholin-4-yl-ethyl)-1H-pyrazolo[3,4-b]pyridin-6-yl]-4-methyl-phenyl}-3,5-dimethyl-benzamide]", "values": [
      {"measurement": "IC50", "setting": "EphA2", "value": "25 to 50", "unit": "nM"},
      {"measurement": "IC50", "setting": "Recombinant EphB2", "value": "0.01 to 25", "unit": "nM"},
      {"measurement": "IC50", "setting": "EphB4", "value": "0.01 to 25", "unit": "nM"}
    ]},
    {"smiles": "CCc1n[nH]c2nc(-c3cc(NC(=O)c4cc(OC)cc(OC)c4)ccc3C)ccc12", "note": "[Compound 8, N-[3-(3-Ethyl-1H-pyrazolo[3,4-b]pyridin-6-yl)-4-methyl-phenyl]-3,5-dimethoxy-benzamide]", "values": [
      {"measurement": "AUC", "setting": "[1]", "value": 2000, "unit": "ng·h/mL"}
    ]},
    {"smiles": "COc1cc(OC)cc(C(=O)Nc2ccc(C)c(-c3ccc4c(CO)n[nH]c4n3)c2)c1", "note": "[Compound 10, N-[3-(3-Hydroxymethyl-1H-pyrazolo[3,4-b]pyridin-6-yl)-4-methyl-phenyl]-3,5-dimethoxy-benzamide]", "values": [
      {"measurement": "IC50", "setting": "EphA2", "value": "0.01 to 25", "unit": "nM"},
      {"measurement": "AUC", "setting": "[1]", "value": 274, "unit": "ng·h/mL"}
    ]},
    {"smiles": "CC(=O)O[C@H]1C(=O)[C@@]2(C)[C@H]([C@H](OC(=O)c3ccccc3)[C@]3(O)C[C@H](OC(=O)[C@H](O)[C@@H](NC(=O)c4ccccc4)c4ccccc4)C(C)=C1C3(C)C)[C@]1(OC(C)=O)CO[C@@H]1C[C@@H]2O", "note": "[Paclitaxel, paclitaxel]", "values": [
      {"measurement": "RTV (Relative Tumor Volume)", "setting": "MDA-MB-231 cells", "value": 2.06},
      {"measurement": "T/C (Tumour Vs Control)", "setting": "MDA-MB-231 cells", "value": 24.31, "unit": "%"},
      {"measurement": "TGI (Tumor Growth Inhibition)", "setting": "MDA-MB-231 cells", "value": 75.69, "unit": "%"}
    ]}
  ]
}
